According to US8198456B2, “Dihydropyridine derivatives as useful as protein kinase inhibitors” (Bayer Intellectual Property GmbH, priority 2006, dated 2012):
pIC50: −log10 of the molar value.

Biological target: T1, recombinant human c-MET kinase enzyme domain (Homo sapiens, UniProt P08581)
T1 construct: Recombinant c-Met kinase domain (amino acids 960-1390); His (N); made in house; host or cells: baculovirus expression system (insect cells; SF21 is named only for the alternative format)
Experiment: c-MET receptor tyrosine kinase Homogeneous Time Resolved Fluorescence assay (HTRF)
Assay type: biochemical
Settings: Biological Example 1 and/or Biological Example 2
Procedure, shortened: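 His-tagged c-Met kinase domain (aa 960-1390, baculovirus) phosphorylated biotinylated poly-Glu-Tyr (37 nM) with 20 μM ATP in HEPES pH 7.4, Mg/Mn, DTT, 1% DMSO, 20 min at ambient temperature, EDTA-stopped. HTRF read (PT66-Eu/streptavidin-XL665, 665/620 nm ratio) after 4 h; IC50 from eight 1:3.16 dilutions.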

T1 sequence (P08581 960-1390): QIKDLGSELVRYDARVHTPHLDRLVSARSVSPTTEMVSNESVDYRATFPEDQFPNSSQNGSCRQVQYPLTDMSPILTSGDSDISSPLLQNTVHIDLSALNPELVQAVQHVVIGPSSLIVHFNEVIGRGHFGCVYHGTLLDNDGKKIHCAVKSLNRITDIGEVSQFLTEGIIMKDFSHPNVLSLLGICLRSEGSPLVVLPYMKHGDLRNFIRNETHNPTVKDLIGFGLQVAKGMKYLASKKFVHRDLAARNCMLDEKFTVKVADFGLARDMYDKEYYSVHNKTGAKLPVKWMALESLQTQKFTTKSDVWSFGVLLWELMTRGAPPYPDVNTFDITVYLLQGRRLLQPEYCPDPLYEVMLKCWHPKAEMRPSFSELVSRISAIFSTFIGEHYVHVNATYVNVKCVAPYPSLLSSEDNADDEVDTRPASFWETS

| Compound | pIC50 |
| --- | --- |
| CC1=C(C#N)C(c2ccc3[nH]ncc3c2)C(C#N)=C(C2CCCN(C(=O)OCc3ccccc3)C2)N1 (stereo not shown) [compound 251, 3-[3,5-dicyano-1,4-dihydro-4-(1H-indazol-5-yl)-6-methyl-2-pyridinyl]-1-piperidinecarboxylic acid phenylmethyl ester] | 5.60 to 6.30 |
| CC1=C(C#N)C(c2ccc3[nH]ncc3c2)C(C#N)=C(c2cccc(N)c2)N1 (stereo not shown) [compound 252, 2-(3-aminophenyl)-1,4-dihydro-4-(1H-indazol-5-yl)-6-methyl-3,5-pyridinedicarbonitrile] | > 7.00 |
| CC(=O)Nc1cccc(C2=C(C#N)C(c3ccc4[nH]ncc4c3)C(C#N)=C(C)N2)c1 (stereo not shown) [compound 253, N-[3-[3,5-dicyano-1,4-dihydro-4-(1H-indazol-5-yl)-6-methyl-2-pyridinyl]-phenyl]-acetamide] | > 7.00 |
| CC1=C(C#N)C(c2ccc3[nH]ncc3c2)C(C#N)=C(CCN)N1 (stereo not shown) [compound 255, 2-(2-aminoethyl)-1,4-dihydro-4-(1H-indazol-5-yl)-6-methyl-3,5-pyridinedicarbonitrile] | > 7.00 |
| COC(=O)c1ccc(C2=C(C#N)C(c3ccc4[nH]ncc4c3)C(C#N)=C(C)N2)cc1 (stereo not shown) [compound 257, 4-[3,5-dicyano-1,4-dihydro-4-(1H-indazol-5-yl)-6-methyl-2-pyridinyl]-benzoic acid methyl ester] | > 7.00 |
| CC1=C(C#N)C(c2ccc3[nH]ncc3c2)C(C#N)=C(c2ccc(CO)cc2)N1 (stereo not shown) [compound 258, 1,4-dihydro-2-[4-(hydroxymethyl)phenyl]-4-(1H-indazol-5-yl)-6-methyl-3,5-pyridinedicarbonitrile] | > 7.00 |
| CC1=C(C#N)C(c2ccc3[nH]nc(N)c3c2)C(C#N)=C(c2ccccc2)N1 (stereo not shown) [compound 259, 4-(3-amino-1H-indazol-5-yl)-1,4-dihydro-2-methyl-6-phenyl-3,5-pyridinedicarbonitrile] | > 7.00 |
| CC1=C(C#N)C(c2ccc3[nH]ncc3c2)C(C#N)=C(c2ccc(C(=O)NCCN3CCOCC3)cc2)N1 (stereo not shown) [compound 261, 4-[3,5-dicyano-1,4-dihydro-4-(1H-indazol-5-yl)-6-methyl-2-pyridinyl]-N-[2-(4-morpholinyl)ethyl]-benzamide] | > 7.00 |
| CC1=C(C#N)C(c2ccc3[nH]nc(N)c3c2)C(C#N)=C(c2ccc(Cl)cc2)N1 (stereo not shown) [compound 264, 4-(3-amino-1H-indazol-5-yl)-2-(4-chlorophenyl)-1,4-dihydro-6-methyl-3,5-pyridinedicarbonitrile] | > 7.00 |
| CC1=C(C#N)C(c2ccc3[nH]ncc3c2)C(C#N)=C(c2ccncc2)N1 (stereo not shown) [compound 265, 1,4-dihydro-4-(1H-indazol-5-yl)-6-methyl-[2,4′-bipyridine]-3,5-dicarbonitrile] | > 7.00 |
| CC1=C(C#N)C(c2ccc3[nH]ncc3c2)C(C#N)=C(c2cccnc2)N1 (stereo not shown) [compound 266, 1,4-dihydro-4-(1H-indazol-5-yl)-6-methyl-[2,3′-bipyridine]-3,5-dicarbonitrile] | > 7.00 |
| CC1=C(C#N)C(c2ccc3[nH]ncc3c2)C(C#N)=C(c2ccco2)N1 (stereo not shown) [compound 267, 2-(2-furanyl)-1,4-dihydro-4-(1H-indazol-5-yl)-6-methyl-3,5-pyridinedicarbonitrile] | > 7.00 |
| CCOC(=O)C1=C(C#N)C(c2ccc3[nH]ncc3c2)C(C#N)=C(C)N1 (stereo not shown) [compound 268, 3,5-dicyano-1,4-dihydro-4-(1H-indazol-5-yl)-6-methyl-2-pyridinecarboxylic acid ethyl ester] | > 7.00 |
| CCC1=C(C#N)C(c2ccc3[nH]ncc3c2)C(C#N)=C(CC)N1 [compound 269, 2,6-diethyl-1,4-dihydro-4-(1H-indazol-5-yl)-3,5-pyridinedicarbonitrile] | > 7.00 |
| CC1=C(C#N)C(c2ccc3[nH]ncc3c2)C(C#N)=C(c2ccc(N3CCOCC3)nc2)N1 (stereo not shown) [compound 271, 1,4-dihydro-4-(1H-indazol-5-yl)-6-methyl-6′-(4-morpholinyl)-[2,3′-bipyridine]-3,5-dicarbonitrile] | > 7.00 |
| CC1=C(C#N)C(c2ccc3[nH]ncc3c2)C(C#N)=C(c2ccc(N3CCOCC3)c(F)c2)N1 (stereo not shown) [compound 272, 2-[3-fluoro-4-(4-morpholinyl)phenyl]-1,4-dihydro-4-(1H-indazol-5-yl)-6-methyl-3,5-pyridinedicarbonitrile] | > 7.00 |
| CC1=C(C#N)C(c2ccc3[nH]ncc3c2)C(C#N)=C(c2ccc(N(C)CCO)nc2)N1 (stereo not shown) [compound 273, 1,4-dihydro-6′-[(2-hydroxyethyl)methylamino]-4-(1H-indazol-5-yl)-6-methyl-[2,3′-bipyridine]-3,5-dicarbonitrile] | > 7.00 |
| CC1=C(C#N)C(c2ccc3[nH]ncc3c2)C(C#N)=C(c2ccc(NCCN3CCOCC3)nc2)N1 (stereo not shown) [compound 274, 1,4-dihydro-4-(1H-indazol-5-yl)-6-methyl-6′-[[2-(4-morpholinyl)ethyl]amino]-[2,3′-bipyridine]-3,5-dicarbonitrile] | > 7.00 |
| CC1=C(C#N)C(c2ccc3[nH]ncc3c2)C(C#N)=C(c2ccc(NCCN(C)C)nc2)N1 (stereo not shown) [compound 275] | > 7.00 |

| Compound | pIC50 |
| --- | --- |
| CC1=C(C#N)C(c2ccc3[nH]ncc3c2)C(C#N)=C(c2ccnc(Cl)c2)N1 (stereo not shown) [compound 276, 2′-chloro-1,4-dihydro-4-(1H-indazol-5-yl)-6-methyl-[2,4′-bipyridine]-3,5-dicarbonitrile] | > 7.00 |
| CC1=C(C#N)C(c2ccc3[nH]ncc3c2)C(C#N)=C(c2ccnc(NCCN3CCOCC3)c2)N1 (stereo not shown) [compound 278, 1,4-dihydro-4-(1H-indazol-5-yl)-6-methyl-2′-[[2-(4-morpholinyl)ethyl]amino]-[2,4′-bipyridine]-3,5-dicarbonitrile] | > 7.00 |
| CC1=C(C#N)C(c2ccc3[nH]nc(N)c3c2)C(C#N)=C(c2cc(C)oc2C)N1 (stereo not shown) [compound 281, 4-(3-amino-1H-indazol-5-yl)-2-(2,5-dimethyl-3-furanyl)-1,4-dihydro-6-methyl-3,5-pyridinedicarbonitrile] | > 7.00 |
| CC1=C(C#N)C(c2ccc3[nH]nc(N)c3c2)C(C#N)=C(c2ccoc2C)N1 (stereo not shown) [compound 282, 4-(3-amino-1H-indazol-5-yl)-1,4-dihydro-2-methyl-6-(2-methyl-3-furanyl)-3,5-pyridinedicarbonitrile] | > 7.00 |
| COC(=O)c1cccc(C2C(C#N)=C(C)N(C)C(C)=C2C#N)c1 [compound 284, 3-(3,5-dicyano-1,4-dihydro-1,2,6-trimethyl-4-pyridinyl)-benzoic acid, methyl ester] | 5.60 to 6.30 |
| CC1=C(C#N)C(c2ccc3[nH]nc(N)c3c2)C(C#N)=C(C)N1C [compound 288, 4-(3-amino-1H-indazol-5-yl)-1,4-dihydro-1,2,6-trimethyl-3,5-pyridinedicarbonitrile] | > 7.00 |
| CC1=C(C#N)C(c2ccc3[nH]ncc3c2)C(C#N)=C(C)N1C [compound 289, 1,4-dihydro-4-(1H-indazol-5-yl)-1,2,6-trimethyl-3,5-pyridinedicarbonitrile] | > 7.00 |
| CCOC(=O)CN1C(C)=C(C#N)C(c2ccc3[nH]ncc3c2)C(C#N)=C1C [compound 290, 3,5-dicyano-4-(1H-indazol-5-yl)-2,6-dimethyl-1(4H)-pyridineacetic acid ethyl ester] | > 7.00 |
| CC1=C(C#N)C(c2ccc3[nH]ncc3c2)C(C#N)=C(C)N1CCO [compound 292, 1,4-dihydro-1-(2-hydroxyethyl)-4-(1H-indazol-5-yl)-2,6-dimethyl-3,5-pyridinedicarbonitrile] | > 7.00 |
| CC1=C(C#N)C(c2ccc3[nH]nc(N)c3c2)C(C#N)=C(C)N1Cc1ccccc1 [compound 293, 4-(3-amino-1H-indazol-5-yl)-1,4-dihydro-2,6-dimethyl-1-(phenylmethyl)-3,5-pyridinedicarbonitrile] | > 7.00 |
| CCN1C(C)=C(C#N)C(c2ccc3[nH]nc(N)c3c2)C(C#N)=C1C [compound 294, 1-ethyl-4-(3-amino-1H-indazol-5-yl)-1,4-dihydro-2,6-dimethyl-3,5-pyridinedicarbonitrile] | > 7.00 |
| CC1=C(C#N)C(c2ccc3[nH]nc(Cl)c3c2)C(C#N)=C(C)N1CCO [compound 297, 4-(3-chloro-1H-indazol-5-yl)-1,4-dihydro-1-(2-hydroxyethyl)-2,6-dimethyl-3,5-pyridinedicarbonitrile] | > 7.00 |
| CC1=C(C#N)C(c2ccc3[nH]nc(Cl)c3c2)C(C#N)=C(C)N1C [compound 298, 4-(3-chloro-1H-indazol-5-yl)-1,4-dihydro-1,2,6-trimethyl-3,5-pyridinedicarbonitrile] | > 7.00 |
| CC1=C(C#N)C(c2ccc3[nH]nc(N)c3c2)C(C#N)=C(C)N1CCO [compound 299, 4-(3-amino-1H-indazol-5-yl)-1,4-dihydro-1-(2-hydroxyethyl)-2,6-dimethyl-3,5-pyridinedicarbonitrile] | > 7.00 |
| CC1=C(C#N)C(c2ccc3[nH]nc(C)c3c2)C(C#N)=C(C)N1C1CC1 [compound 301, 1-cyclopropyl-1,4-dihydro-2,6-dimethyl-4-(3-methyl-1H-indazol-5-yl)-3,5-pyridinedicarbonitrile] | > 7.00 |
| C#CCN1C(C)=C(C#N)C(c2ccc3[nH]ncc3c2)C(C#N)=C1C [compound 302, 1,4-dihydro-4-(1H-indazol-5-yl)-2,6-dimethyl-1-(2-propynyl)-3,5-pyridinedicarbonitrile] | > 7.00 |
| CC1=C(C#N)C(c2ccc3[nH]ncc3c2)C(C#N)=C2CCCCN12 (stereo not shown) [compound 304, 6,7,8,9-tetrahydro-2-(1H-indazol-5-yl)-4-methyl-2H-quinolizine-1,3-dicarbonitrile] | > 7.00 |
| CC1=C(C#N)C(c2ccc3[nH]nc(C)c3c2)C(C#N)=C(C)N1C [compound 306, 1,4-dihydro-1,2,6-trimethyl-4-(3-methyl-1H-indazol-5-yl)-3,5-pyridinedicarbonitrile] | > 7.00 |
